Measurements: patent publication US20010056104A1, “Treatment of ocular hypertension and glaucoma” (priority 2000, published 2001)
Like-named read-outs stand apart in the source and are kept apart here. Each block holds one molecule with its values, some of them ahead of it.

Key:
[1] = tested on: prostaglandin receptor sites in bovine corpus luteal membranes; assay: Ligand binding assay in bovine corpus luteal membranes; conditions: for displacement of bound 3H-unoprostone isopropyl by unlabeled competing ligand: competition studies; for binding to PG receptor sites: in words
Protocol: (§1) In ligand binding studies, the specificity of labeled unoprostone isopropyl and the metabolite binding to prostaglandin receptor sites in bovine corpus luteal membranes was determined. This tissue expresses most of the PG receptors including an abundance of FP receptors. In signal transduction studies, the mobilization of intracellular calcium using Fluorescence Imaging technique in the primary culture of human ciliary muscle cells and cyclic AMP generation in rabbit iris-ciliary body was measured.
This method is well described in the literature. […] Free unbound ligands were separated by rapid filtration using a millipore filtration assembly. Membrane bound radioactivity retained by the filter was counted. It is important to define the following terms for appreciation of the binding data:
Total binding is defined as the amount bound in the absence of unlabeled ligand.
Specific binding is defined as the binding displaced by unlabeled ligand.
Non-specific binding is the binding not displaced by unlabeled ligand.

[2] = tested on: human ciliary muscle cells; assay: Intracellular calcium mobilization (Fura 2-AM) in human ciliary muscle cells; format: cell-based; conditions: for affinity for EP1 or FP or TP receptors: suggested by inability to mobilize intracellular calcium
Protocol: as §1
Human ciliary muscle cells at confluency were loaded with Fura 2-AM. Cells in a petri dish were put in a jacketed chamber mounted on the microscope platform. The chamber was maintained at 37° C. by thermostatically controlled water circulating through the chamber jacket. The cells were then exposed to the excitation wavelengths of 334 and 380 nm with an emission wavelength of 510 nm. Cells were perfused with HEPES buffer with or without test compounds. The intracellular calcium was visualized and photographed using Attofluor RatioVision software program and Zeiss fluorescence microscope.

[3] = target: FP-receptor (Felis catus, UniProt A0ABI7XJ69); assay: Functional FP-receptor study, cat iris sphincter muscle contraction; format: cell-based; conditions: for EC50: text restating Table I, read-out: concentration needed to stimulate the FP-receptor at 50% efficacy
Protocol: Functional FP-receptor studies were performed using iris sphincter muscles from cat eyes. The eyes were either used directly after enucleation or stored in ice cold saline overnight. The iris sphincter muscles were prepared, cut in halfs, and mounted in thermostated (37° C.) tissue baths with oxygenated modified Kreb's solution containing indomethacin (2.8×10^−6 M), atropine (10^−7 M) and propranolol (10^−7 M). A resting tension of 150 mg was applied, and the contractile force was measured isometrically after cumulative dosing of test compounds. A manual or automated tissue bath system (Buxco, STC 400) was used for the experiments. For each tissue sample the maximal response was normalized to 100%. The mean response of two to four different preparations was calculated.
(§2) Concentration-effect curves were fitted to the data using the logistic sigmoid function.

[4] = target: T1, EP1-receptor (Bos taurus, UniProt F1MUY4); assay: EP1-receptor activity, bovine iris sphincter muscle; format: cell-based
T1 sequence (F1MUY4 1-407): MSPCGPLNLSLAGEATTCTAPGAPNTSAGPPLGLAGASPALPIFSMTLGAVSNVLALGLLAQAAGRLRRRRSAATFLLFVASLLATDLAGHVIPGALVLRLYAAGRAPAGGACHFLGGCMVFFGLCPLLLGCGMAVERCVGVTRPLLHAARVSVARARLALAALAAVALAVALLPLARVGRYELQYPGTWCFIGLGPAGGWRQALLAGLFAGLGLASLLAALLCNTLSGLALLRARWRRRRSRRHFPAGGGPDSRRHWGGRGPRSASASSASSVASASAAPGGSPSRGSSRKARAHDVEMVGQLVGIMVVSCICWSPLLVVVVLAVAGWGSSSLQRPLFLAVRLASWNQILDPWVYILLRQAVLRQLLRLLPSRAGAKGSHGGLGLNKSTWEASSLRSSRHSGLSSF
From the text: Iris sphincter muscles from bovine eyes were used for studies of EP1-receptor responses. Freshly enucleated bovine eyes were transported on ice from a slaughterhouse.
as §2

[5] = target: EP2-receptors (Cavia porcellus, UniProt A0A286XDB1); assay: EP2-receptor activity, guinea-pig ileum twitch inhibition; format: cell-based; conditions: for EC50: smooth muscle bath, guinea-pig ileum
From the text: Segments of guinea-pig ileum were used to study the effect on EP2-receptors. Male guinea pigs were killed with a blow to the head and bled from the carotid arteries. Circular rings (2-3 mm wide) were taken from the ileum about 10 cm from the caecum, A resting tension of 1 g was applied and the preparation was stimulated by using a Gras S88 stimulator delivering trains of square pulses (frequency 7.5 Hz, pulse duration 0.1 msec, train duration 4 sec) to two parallel platinum electrodes in the bath. The voltage over the electrodes was approximately 20V, and the interval between trains was 100 seconds. The peak contractile force at each stimulation train was measured. Test compounds were added cumulatively, and the inhibitory effect on the muscle twitch was evaluated. […] Concentration-effect curves were fitted to the data using the logistic sigmoid function.

[6] = target: T2, EP3-receptors (Cavia porcellus, UniProt A0A286XLZ9); assay: EP3-receptor activity, guinea-pig vas deferens; format: cell-based; conditions: for EC50: smooth muscle bath, guinea-pig vas deferens
T2 sequence (A0A286XLZ9 with tags, fused parts or gaps): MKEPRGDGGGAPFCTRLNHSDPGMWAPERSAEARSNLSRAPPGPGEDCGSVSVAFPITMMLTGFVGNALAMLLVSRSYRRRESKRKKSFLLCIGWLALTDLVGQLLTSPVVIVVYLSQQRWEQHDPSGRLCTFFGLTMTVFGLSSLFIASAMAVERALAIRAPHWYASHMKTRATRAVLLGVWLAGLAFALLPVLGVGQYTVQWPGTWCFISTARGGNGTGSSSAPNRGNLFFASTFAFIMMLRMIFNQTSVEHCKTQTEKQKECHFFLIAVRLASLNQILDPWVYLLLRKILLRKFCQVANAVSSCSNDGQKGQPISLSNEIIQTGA
Protocol: Guinea-pig vas deferens was used to assess the effect on EP3-receptors. Tissue segments of about 10 mm were mounted in tissue baths and the experiments were performed essentially in the same way as described for the guinea-pig circular ileum. Concentration-effect curves were fitted to the data using the logistic sigmoid function.

[7] = cynomolgus monkeys; cited from earlier work
[8] = treated for about three or more months; cited from earlier work
[9] = target: FP receptor (Homo sapiens, UniProt P43088); conditions: background statement; cited from earlier work
[10] = target: T3, PGF2α receptors (Bos taurus, UniProt P37289); conditions: free acid form; bovine corpus luteum; cited from earlier work
T3 construct: host or cells: bovine corpus luteum

[11] = tested on: PGF2α receptors; conditions: free acid form; contraction of cat iris sphincter; cited from earlier work
[12] = long-term monkey trial, preliminary published results; cited from earlier work
[13] = competing ligand PGF2α 0.062 μM
[14] = radioligand conc. 8.0 nM (3H-PGF2α)
[15] = concentrations ranging from 10-1000 nM
[16] = competing ligand unoprostone isopropyl 2.5 μM
[17] = competing ligand unoprostone isopropyl 5.0 μM
[18] = competing ligand unoprostone isopropyl 8.0 μM
[19] = competing ligand unoprostone isopropyl 16.0 μM

Sequence of FP-receptor (A0ABI7XJ69 entry or part of it): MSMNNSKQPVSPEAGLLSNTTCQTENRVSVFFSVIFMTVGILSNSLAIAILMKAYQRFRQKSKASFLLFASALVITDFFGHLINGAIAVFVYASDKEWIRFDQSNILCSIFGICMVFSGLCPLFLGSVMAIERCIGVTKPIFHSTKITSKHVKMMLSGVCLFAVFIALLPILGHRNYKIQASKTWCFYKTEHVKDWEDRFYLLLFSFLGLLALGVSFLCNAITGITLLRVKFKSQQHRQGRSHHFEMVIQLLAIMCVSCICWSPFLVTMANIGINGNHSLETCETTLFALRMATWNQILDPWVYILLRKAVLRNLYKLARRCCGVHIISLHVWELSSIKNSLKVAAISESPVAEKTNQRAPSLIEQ
Sequence of EP2-receptors (A0A286XDB1 1-359): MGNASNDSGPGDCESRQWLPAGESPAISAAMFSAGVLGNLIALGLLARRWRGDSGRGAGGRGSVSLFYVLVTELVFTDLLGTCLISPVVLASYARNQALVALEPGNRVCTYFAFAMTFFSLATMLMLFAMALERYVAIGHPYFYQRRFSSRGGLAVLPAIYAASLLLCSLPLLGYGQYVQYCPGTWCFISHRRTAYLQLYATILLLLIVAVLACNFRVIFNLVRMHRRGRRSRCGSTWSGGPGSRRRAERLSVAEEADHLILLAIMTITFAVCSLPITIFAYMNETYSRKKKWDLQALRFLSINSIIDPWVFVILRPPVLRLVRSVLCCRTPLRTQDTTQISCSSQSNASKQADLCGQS
T3 sequence (P37289 whole entry): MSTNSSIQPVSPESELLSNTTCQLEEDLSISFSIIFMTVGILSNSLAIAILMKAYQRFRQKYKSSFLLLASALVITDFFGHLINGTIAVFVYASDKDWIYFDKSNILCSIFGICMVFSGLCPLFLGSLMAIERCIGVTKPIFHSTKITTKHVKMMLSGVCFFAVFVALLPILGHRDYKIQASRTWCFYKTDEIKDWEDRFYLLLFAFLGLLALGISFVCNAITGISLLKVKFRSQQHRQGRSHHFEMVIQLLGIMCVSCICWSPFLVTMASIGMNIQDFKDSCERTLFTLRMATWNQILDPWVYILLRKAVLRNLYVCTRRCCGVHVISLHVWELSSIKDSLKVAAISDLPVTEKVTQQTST
Sequence of FP receptor (P43088 whole entry): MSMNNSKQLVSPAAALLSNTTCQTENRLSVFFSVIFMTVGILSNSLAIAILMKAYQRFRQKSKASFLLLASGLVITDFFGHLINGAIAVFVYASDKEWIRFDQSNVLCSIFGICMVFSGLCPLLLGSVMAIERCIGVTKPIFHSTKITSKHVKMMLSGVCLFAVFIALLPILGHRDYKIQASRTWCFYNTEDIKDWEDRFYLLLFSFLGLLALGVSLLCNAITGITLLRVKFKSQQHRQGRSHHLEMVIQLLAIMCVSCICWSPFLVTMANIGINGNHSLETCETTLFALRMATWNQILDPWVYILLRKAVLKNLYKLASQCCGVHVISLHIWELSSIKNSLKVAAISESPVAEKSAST

- displacement of bound 3H-unoprostone isopropyl by unlabeled competing ligand [1]: did not displace
Molecule: 17-Phenyl trinor PGE1

- receptor selectivity (FP vs other prostaglandin receptors) ([3]; from Table I): selective agonist for the FP receptor
Molecule: CC(C)OC(=O)CCC/C=C\C[C@@H]1[C@@H](CC[C@@H](O)CCc2ccccc2)[C@H](O)C[C@@H]1O [Latanoprost, 13,14-dihydro-17-phenyl-18,19,20-trinor PGF2α isopropyl ester]
- iridial pigmentation [7]: induced increased iridial pigmentation
- human patients with brown pigmentation of the iris [8]: ≥ 10%
- specific binding affinity for the FP receptor [9]: substantial specific binding affinity

- specific binding to bovine corpus luteal membranes (in words) [1]: bound specifically
- Specific Binding (3H-PGF2α) [1, 13]: 0.07 fmoles/mg Protein
- Total 3H-PGF2α binding [1, 13]: 0.56 fmol/mg protein
- Specific Binding (3H-PGF2α) ([1]; competing ligand PGF2α 0.25 μM): 0.15 fmoles/mg Protein
- Total 3H-PGF2α binding ([1]; competing ligand PGF2α 0.25 μM): 0.56 fmol/mg protein
- Specific Binding (3H-PGF2α) ([1]; competing ligand PGF2α 0.5 μM): 0.25 fmoles/mg Protein
- Total 3H-PGF2α binding ([1]; competing ligand PGF2α 0.5 μM): 0.56 fmol/mg protein
- Specific Binding (3H-PGF2α) ([1]; competing ligand PGF2α 8.0 μM): 0.42 fmoles/mg Protein
- Total 3H-PGF2α binding ([1]; competing ligand PGF2α 8.0 μM): 0.56 fmol/mg protein
- displacement of bound 3H-unoprostone isopropyl by unlabeled competing ligand [1]: did not displace
- Specific Binding ([1]; radioligand conc. 2.0 nM): 120.0 ± 15.0 fmoles/mg protein
- Total Binding ([1]; radioligand conc. 2.0 nM): 150.0 ± 16.0 fmoles/mg protein
- Total Binding ([1]; radioligand conc. 4.0 nM): 325.0 ± 25.0 fmoles/mg protein
- Specific Binding [1, 14]: 423.0 ± 40.0 fmoles/mg protein
- Total Binding [1, 14]: 505.0 ± 75.0 fmoles/mg protein
Molecule: CCCCC[C@H](O)/C=C/[C@@H]1[C@@H](C/C=C\CCCC(=O)O)[C@@H](O)C[C@H]1O [PGF2α]

- displacement of bound 3H-unoprostone isopropyl by unlabeled competing ligand [1]: did not displace
Molecule: CC#CCC(C)[C@H](O)/C=C/[C@@H]1[C@H]2C/C(=C/CCCC(=O)O)C[C@H]2C[C@H]1O (stereo partly shown) [iloprost]

- binding to PG receptor sites [1]: does not bind
Molecule: CCCCCCCC(=O)CC[C@@H]1[C@@H](C/C=C\CCCC(=O)O)[C@@H](O)C[C@H]1O [metabolite]
- binding inhibitory activity relative to PGF2α [10]: 1/280
- mobilization of intracellular calcium [2, 15]: did not mobilize
- affinity for EP1 or FP or TP receptors [2]: no affinity
- agonistic activity to PGF2α receptors relative to PGF2α [11]: 1/1600

The next lines start with the molecule.

Molecule: O=C(O)CCC/C=C\C[C@@H]1[C@@H](/C=C/[C@@H](O)COc2cccc(C(F)(F)F)c2)[C@H](O)C[C@@H]1O (racemic) [Fluprostenol]
- mobilization of intracellular calcium ([2]; FP receptor agonist control, concentration not given): mobilized calcium

Molecule: O=C(O)CCCC=CCC1C(O)CC(O)C1CCC(=O)CCc1ccccc1 (stereo not shown) [15-keto Latanoprost Acid]
- potency on the FP receptor relative to latanoprost acid ([3]; from Table I EC50 values): at least ten times less potent
- EC50 [3]: 0.26 µM
- activity on EP1 receptor ([4]; in words): virtually no activity
- EC50 ([4]; read-out: EC50 EP1, smooth muscle bath, bovine iris sphincter): 28 µM
- activity on EP2 receptor ([5]; in words): virtually no activity
- EC50 [5]: > 100 µM
- activity on EP3 receptor ([6]; in words): virtually no activity
- EC50 [6]: > 100 µM

Molecule: O=C(O)CCCCCCC1C(=O)NC(=O)N1CCC(O)C1CCCCC1 (stereo not shown) [BW245C]
- displacement of bound 3H-unoprostone isopropyl by unlabeled competing ligand [1]: did not displace

Molecule: CCCC1([C@H](O)C/C=C/[C@H]2[C@H](O)CC(=O)[C@@H]2CCCCCCC(=O)OC)CCC1 [Butaprost]
- displacement of bound 3H-unoprostone isopropyl by unlabeled competing ligand [1]: did not displace

Molecule: O=C(O)CCC/C=C\C[C@@H]1[C@@H](CC[C@@H](O)CCc2ccccc2)[C@H](O)C[C@@H]1O [Latanoprost Acid]
- EC50 [3]: 0.01 µM
- EC50 [5]: 530 µM
- EC50 [6]: 28 µM

Molecule: CCCCCC(O)C=CC1C(O)CC(=O)C1CC=CCCCC(=O)OC(C)C (stereo not shown) [PGE2-IE]
- iridial pigmentation [7]: induced increased iridial pigmentation

Molecule: CCCCC[C@H](O)/C=C/[C@@H]1[C@@H](C/C=C\CCCC(=O)OC(C)C)[C@@H](O)C[C@H]1O [PGF2α-IE]
- iridial pigmentation [7]: induced increased iridial pigmentation

Molecule: CCCCC[C@H](O)/C=C/[C@@H]1[C@@H](C/C=C\CCCC(=O)O)[C@H]2CO[C@@H]1C2 [U46619]
- displacement of bound 3H-unoprostone isopropyl by unlabeled competing ligand [1]: did not displace

Molecule: CCCCCCCC(=O)CC[C@@H]1[C@@H](C/C=C\CCCC(=O)OC(C)C)[C@@H](O)C[C@H]1O [unoprostone isopropyl, 13,14-dihydro-15-keto-20-ethyl PGF2α isopropyl ester]
- iridic pigmentation [12]: no iridic pigmentation
- mobilization of intracellular calcium [2, 15]: did not mobilize
- affinity for EP1 or FP or TP receptors [2]: no affinity
- specific binding to bovine corpus luteal membranes (in words) [1]: no specific binding sites
- Total Binding ([1]; at 5 minutes): 21.0 fmoles/mg protein
- Specific Binding of 3H-unoprostone isopropyl [1, 16]: 0
- Total 3H-unoprostone isopropyl binding [1, 16]: 7.0 ƒmoles/mg protein
- Specific Binding of 3H-unoprostone isopropyl [1, 17]: 0
- Total 3H-unoprostone isopropyl binding [1, 17]: 6.5 ƒmoles/mg protein
- Specific Binding of 3H-unoprostone isopropyl [1, 18]: 0
- Total 3H-unoprostone isopropyl binding [1, 18]: 6.7 ƒmoles/mg protein
- Specific Binding of 3H-unoprostone isopropyl [1, 19]: 0
- Total 3H-unoprostone isopropyl binding [1, 19]: 7.6 ƒmoles/mg protein
- displacement of bound 3H-unoprostone isopropyl by unlabeled competing ligand [1]: did not displace
- binding to DP, EP1, EP2, EP3, IP and TP receptor sites ([1]; concluded from competition studies): does not bind
- binding to PG receptor sites [1]: does not bind
- specific binding to bovine corpus luteal membranes (in words) ([1]; listed as 3H-unoprostone isopropyl): no specific binding
- Total Binding ([1]; membrane protein conc. 50 μg): 13.0 ± 2.0 (3) fmoles/mg protein
- Total Binding ([1]; membrane protein conc. 100 μg): 23.0 ± 6.0 (3) fmoles/mg protein
- Total Binding ([1]; membrane protein conc. 200 μg): 32.0 ± 8.0 (3) fmoles/mg protein
- Specific Binding ([1]; radioligand conc. 8.0 nM): 0 fmoles/mg protein
- Total Binding ([1]; radioligand conc. 8.0 nM): 19.4 ± 2.0 ƒmoles/mg protein
- Specific Binding ([1]; radioligand conc. 16.0 nM): 0 fmoles/mg protein
- Total Binding ([1]; radioligand conc. 16.0 nM): 25.5 ± 4.0 ƒmoles/mg protein
- Specific Binding ([1]; radioligand conc. 32.0 nM): 0 fmoles/mg protein
- Total Binding ([1]; radioligand conc. 32.0 nM): 40.0 ± 7.0 ƒmoles/mg protein
- change of total binding with time ([1]; up to 60 minutes): did not increase with time
